Assay [1] concerns Pseudomonas aeruginosa 5007. The assay can be described thus: MIC, agar dilution method. The assay is classed as cell-based. Particulars: Brain Heart Infusion agar, 10^5 CFU inoculum. The protocol:
(§1) The antibacterial activity of the compounds of the invention against a variety of microorganisms is illustrated in Table 3. Minimum inhibitory concentrations were determined by the agar dilution method using brain heart infusion agar with 10 ^5 CFU (colony forming units) as the inoculum.

For assay [2], the system named is Staphylococcus aureus CMX 686b. In words: MIC, agar dilution method. The assay is classed as cell-based. Particulars: Brain Heart Infusion agar, 10^5 CFU inoculum. The protocol: as §1
Assay [3] deals with Streptococcus agalactiae CMX 508. The assay can be described thus: MIC, agar dilution method. It counts as cell-based. Particulars: Brain Heart Infusion agar, 10^5 CFU inoculum. The procedure:
as §1

In assay [4] the test system is Pseudomonas cepacia 2961. The assay can be described thus: MIC, agar dilution method. It counts as cell-based. Particulars: Brain Heart Infusion agar, 10^5 CFU inoculum. The protocol:
as §1

The subject of assay [5] is Staphylococcus aureus 45. The assay can be described thus: MIC, agar dilution method. It counts as cell-based. The following applies: Brain Heart Infusion agar, 10^5 CFU inoculum. The protocol:
as §1
In general terms: Agar dilution tests growth on a series of plates holding different concentrations.

Assay [6] has as its system Staphylococcus aureus 45 RAR2. The assay can be described thus: MIC, agar dilution method. It counts as cell-based. The following applies: Brain Heart Infusion agar, 10^5 CFU inoculum. The protocol:
as §1

Assay [7] relates to Streptococcus pyogenes 930. The assay can be described thus: MIC, agar dilution method. The assay is classed as cell-based. Particulars: Brain Heart Infusion agar, 10^5 CFU inoculum. The procedure:
as §1

Assay [8] relates to Staphylococcus aureus A5177. In words: MIC, agar dilution method. The assay is classed as cell-based. The following applies: Brain Heart Infusion agar, 10^5 CFU inoculum. The protocol: as §1
Assay [9] concerns Streptococcus bovis A5169. In words: MIC, agar dilution method. It counts as cell-based. The following applies: Brain Heart Infusion agar, 10^5 CFU inoculum. The protocol: as §1
In assay [10] the test system is Escherichia coli Juhl. The assay can be described thus: MIC, agar dilution method. The assay is classed as cell-based. Particulars: Brain Heart Infusion agar, 10^5 CFU inoculum. The procedure: as §1
The subject of assay [11] is Enterobacter aerogenes ATCC 13048. The assay can be described thus: MIC, agar dilution method. The assay is classed as cell-based. Particulars: Brain Heart Infusion agar, 10^5 CFU inoculum. The procedure: as §1
The subject of assay [12] is Escherichia coli DC-2. The assay can be described thus: MIC, agar dilution method. The assay is classed as cell-based. The following applies: Brain Heart Infusion agar, 10^5 CFU inoculum. The protocol: as §1
In assay [13] the test system is Klebsiella pneumoniae ATCC 8045. In words: MIC, agar dilution method. It counts as cell-based. The following applies: Brain Heart Infusion agar, 10^5 CFU inoculum. The procedure:
as §1

Assay [14] concerns Streptococcus faecium ATCC 8043. The assay can be described thus: MIC, agar dilution method. It counts as cell-based. The following applies: Brain Heart Infusion agar, 10^5 CFU inoculum. The protocol: as §1
For assay [15], the system named is Streptococcus pyogenes EES61. The assay can be described thus: MIC, agar dilution method. It counts as cell-based. Particulars: Brain Heart Infusion agar, 10^5 CFU inoculum. The procedure:
as §1

In assay [16] the test system is Sarcina lutea 9341. The assay can be described thus: MIC, agar dilution method. It counts as cell-based. Particulars: Brain Heart Infusion agar, 10^5 CFU inoculum. The procedure:
as §1

Assay [17] deals with Staphylococcus epidermidis 3519 RAR1. In words: MIC, agar dilution method. It counts as cell-based. The following applies: Brain Heart Infusion agar, 10^5 CFU inoculum. The protocol: as §1
Assay [18] deals with Escherichia coli SS. In words: MIC, agar dilution method. It counts as cell-based. Particulars: Brain Heart Infusion agar, 10^5 CFU inoculum. The protocol: as §1
In assay [19] the test system is Staphylococcus epidermidis 3519. The assay can be described thus: MIC, agar dilution method. It counts as cell-based. The following applies: Brain Heart Infusion agar, 10^5 CFU inoculum. The procedure: as §1
The test system of assay [20] is Acinetobacter CMX 669. In words: MIC, agar dilution method. The assay is classed as cell-based. Particulars: Brain Heart Infusion agar, 10^5 CFU inoculum. The procedure:
as §1

Assay [21] concerns Lactobacillus casei ATCC 7469. In words: MIC, agar dilution method. It counts as cell-based. Particulars: Brain Heart Infusion agar, 10^5 CFU inoculum. The protocol:
as §1

Assay [22] has as its system Staphylococcus aureus ATCC 6538P. The assay can be described thus: MIC, agar dilution method. It counts as cell-based. The following applies: Brain Heart Infusion agar, 10^5 CFU inoculum. The procedure:
as §1

Assay [23] relates to KB cells. The assay can be described thus: KB antitumor test (cytotoxicity). It counts as cell-based, human. The following applies: Tumor Cell 9KB; dose which inhibits growth to 50% of control growth by 3 days after drug addition. The procedure:
The cytotoxic activity of the compounds of the invention can be tested by a KB antitumor test. KB cells are derived from human epidermoid carcinoma of the mouth and are cultivated on Eagel's basal medium plus 10% serum. Stock cells are fed 24 hours before testing. Test drug is added on day 0 or day 1. Results are expressed as the dose which inhibits growth to 50% of control growth by 3 days after drug addition.
When the K8 antitumor test was conducted on benzanthrins A and B, the following test data resulted: […]

≈ marks a conversion by molar mass, not a printed value.

Broadly, the MIC is the lowest concentration that inhibits growth of the organism.

With `Cc1cc2cc(O)c3c(c2c(O[C@@H]2C[C@H](N(C)C)[C@@H](O)[C@@H](C)O2)c1[C@@H]1C[C@H](N(C)C)[C@@H](O)[C@H](C)O1)C(=O)c1cccc(O)c1C3=O` [Benzanthrin A], the MIC in assay [1] came out at 100 µg/mL (≈ 158 µM); in [2], 3.1 µg/mL (≈ 4.88 µM); in assay [3], 0.78 µg/mL (≈ 1.23 µM); in [4], 100 µg/mL (≈ 158 µM); in assay [5], 3.1 µg/mL (≈ 4.88 µM); in assay [6], 3.1 µg/mL (≈ 4.88 µM). The MIC is 0.2 µg/mL (≈ 0.315 µM) in assay [7]; 3.1 µg/mL (≈ 4.88 µM) in [8]; 0.39 µg/mL (≈ 0.614 µM) in assay [9]; 100 µg/mL (≈ 158 µM) in assay [10]; 100 µg/mL (≈ 158 µM) in assay [11]; 100 µg/mL (≈ 158 µM) in assay [12]. Also, the MIC in assay [13] stood at 100 µg/mL (≈ 158 µM); in [14], 1.56 µg/mL (≈ 2.46 µM); in assay [15], 1.56 µg/mL (≈ 2.46 µM); in assay [16], 1.56 µg/mL (≈ 2.46 µM); in assay [17] it was 3.1 µg/mL (≈ 4.88 µM); in assay [18], 3.1 µg/mL (≈ 4.88 µM). The MIC in assay [19] is 3.1 µg/mL (≈ 4.88 µM); in assay [20] it was 100 µg/mL (≈ 158 µM); in assay [21], 0.78 µg/mL (≈ 1.23 µM); in assay [22], 3.1 µg/mL (≈ 4.88 µM). This molecule yielded an ED50 in assay [23] of 100 to 300 µg/mL.

As to `Cc1cc2cc(O)c3c(c2c(O[C@@H]2C[C@H](N(C)C)[C@H](O)[C@@H](C)O2)c1[C@@H]1C[C@H](N(C)C)[C@@H](O)[C@H](C)O1)C(=O)c1cccc(O)c1C3=O` [Benzanthrin B], the MIC stood at 100 µg/mL (≈ 158 µM) in assay [1]; 1.56 µg/mL (≈ 2.46 µM) in assay [2]; 0.39 µg/mL (≈ 0.614 µM) in [3]; 100 µg/mL (≈ 158 µM) in assay [4]; 1.56 µg/mL (≈ 2.46 µM) in assay [5]; 3.1 µg/mL (≈ 4.88 µM) in assay [6]. The MIC in assay [7] amounted to 0.2 µg/mL (≈ 0.315 µM); in assay [8], 1.56 µg/mL (≈ 2.46 µM); in assay [9], 0.2 µg/mL (≈ 0.315 µM); in assay [10] it was 100 µg/mL (≈ 158 µM); in assay [11] it was 100 µg/mL (≈ 158 µM); in [12] it was 100 µg/mL (≈ 158 µM). Besides, the MIC is 100 µg/mL (≈ 158 µM) in [13]; 1.56 µg/mL (≈ 2.46 µM) in [14]; 0.39 µg/mL (≈ 0.614 µM) in assay [15]; 3.1 µg/mL (≈ 4.88 µM) in assay [17]; 6.2 µg/mL (≈ 9.77 µM) in assay [18]; 3.1 µg/mL (≈ 4.88 µM) in assay [19]. The results for the minimal inhibitory concentration (MIC) in assay [21] and in assay [22] were 0.78 µg/mL (≈ 1.23 µM) and 3.1 µg/mL (≈ 4.88 µM), respectively. The ED50 in [23] lay in the range of 200 to 300 µg/mL.
